Assay results reported in ChEMBL document CHEMBL3885861, “Open TG-GATES”.

Organism: Rattus norvegicus
Assay: Open TG-GATES - Regimen: Single
Assay type: toxicity, organism-based, Sprague-Dawley
Design: regimen Single, gender Male, age 6 weeks
Settings: in vivo, ip, 0.003 mg/kg, route intraperitoneal injection, dose 3 ug/Kg, dose level Middle; for APTT / Bas / Eos / Fbg / Hb / Ht / Lym / MCH / MCHC / MCV / Mono / Neu / PT / Plat / RBC / Ret / WBC: tissue Blood; for KIDNEY_L / KIDNEY_R / KIDNEY_TOTAL: tissue Kidney; for LIVER: tissue Liver; for A/G / ALP / ALT / AST / BUN / CRE / Ca / Cl / DBIL / GLC / IP / K / LDH / Na / PL / RALB / TBIL / TC / TG / TP / gamma-GTP: tissue Plasma

## H-KGDRLS-OH [TNF-ALPHA]
3 h
  TERMINAL_BW: 199 g
  APTT: 17.3 s
  Bas: 0%
  Eos: 0.4%
  Fbg: 265 mg/dL
  Hb: 13 g/dL
  Ht: 39.9%
  Lym: 70.4%
  MCH: 21.1 pg
  MCHC: 32.6%
  MCV: 64.9 fL
  Mono: 4.2%
  Neu: 23%
  PT: 15.9 s
  Plat: 112.9 x10_4/uL
  RBC: 614.6 x10_4/ul
  Ret: 9.2%
  WBC: 88.2 x10_2/uL
  KIDNEY_L: 0.9 g
  KIDNEY_R: 0.9 g
  KIDNEY_TOTAL: 1.8 g
  LIVER: 9.3 g
  A/G: 0.9
  ALP: 1480.4 IU/L
  ALT: 47.6 IU/L
  AST: 75.8 IU/L
  BUN: 10.8 mg/dL
  CRE: 0.2 mg/dL
  Ca: 10.8 mg/dL
  Cl: 104.8 meq/L
  DBIL: 0.01 mg/dL
  GLC: 162.2 mg/dL
  IP: 9.2 mg/dL
  K: 4.3 meq/L
  LDH: 68 IU/L
  Na: 141.6 meq/L
  PL: 137 mg/dL
  RALB: 2.5 g/dL
  TBIL: 0.052 mg/dL
  TC: 73 mg/dL
  TG: 61.8 mg/dL
  TP: 5.3 g/dL
  gamma-GTP: 1.4 IU/L
6 h
  TERMINAL_BW: 197.1 g
  APTT: 17.1 s
  Bas: 0%
  Eos: 0.4%
  Fbg: 321.4 mg/dL
  Hb: 13 g/dL
  Ht: 39.7%
  Lym: 63.4%
  MCH: 21.5 pg
  MCHC: 33%
  MCV: 65.1 fL
  Mono: 2.6%
  Neu: 32%
  PT: 15.1 s
  Plat: 110.6 x10_4/uL
  RBC: 610.4 x10_4/ul
  Ret: 8%
  WBC: 81.9 x10_2/uL
  KIDNEY_L: 0.9 g
  KIDNEY_R: 0.9 g
  KIDNEY_TOTAL: 1.8 g
  LIVER: 8.7 g
  A/G: 0.9
  ALP: 1155.6 IU/L
  ALT: 39.8 IU/L
  AST: 65.8 IU/L
  BUN: 8.6 mg/dL
  CRE: 0.2 mg/dL
  Ca: 10.7 mg/dL
  Cl: 105.6 meq/L
  DBIL: 0.008 mg/dL
  GLC: 170.4 mg/dL
  IP: 10.2 mg/dL
  K: 3.7 meq/L
  LDH: 72.8 IU/L
  Na: 143.4 meq/L
  PL: 147.6 mg/dL
  RALB: 2.5 g/dL
  TBIL: 0.06 mg/dL
  TC: 84.4 mg/dL
  TG: 27.2 mg/dL
  TP: 5.4 g/dL
  gamma-GTP: 1 IU/L
9 h
  TERMINAL_BW: 194.9 g
  APTT: 17.3 s
  Bas: 0%
  Eos: 0.4%
  Fbg: 380.6 mg/dL
  Hb: 12.9 g/dL
  Ht: 39.7%
  Lym: 66.2%
  MCH: 21.2 pg
  MCHC: 32.4%
  MCV: 65.5 fL
  Mono: 2.6%
  Neu: 29.8%
  PT: 15.4 s
  Plat: 104.9 x10_4/uL
  RBC: 606.6 x10_4/ul
  Ret: 8.3%
  WBC: 75.4 x10_2/uL
  KIDNEY_L: 0.9 g
  KIDNEY_R: 0.9 g
  KIDNEY_TOTAL: 1.8 g
  LIVER: 7.9 g
  A/G: 0.9
  ALP: 1301.4 IU/L
  ALT: 36.4 IU/L
  AST: 71.4 IU/L
  BUN: 7.6 mg/dL
  CRE: 0.2 mg/dL
  Ca: 10.6 mg/dL
  Cl: 105.6 meq/L
  DBIL: 0.004 mg/dL
  GLC: 159 mg/dL
  IP: 9.5 mg/dL
  K: 4 meq/L
  LDH: 46.6 IU/L
  Na: 142 meq/L
  PL: 155.4 mg/dL
  RALB: 2.5 g/dL
  TBIL: 0.062 mg/dL
  TC: 92.6 mg/dL
  TG: 25.2 mg/dL
  TP: 5.3 g/dL
  gamma-GTP: 1 IU/L
24 h
  TERMINAL_BW: 211 g
  APTT: 14.6 s
  Bas: 0%
  Eos: 1%
  Fbg: 361.4 mg/dL
  Hb: 12.8 g/dL
  Ht: 39.4%
  Lym: 77.6%
  MCH: 20.7 pg
  MCHC: 32.6%
  MCV: 63.6 fL
  Mono: 3.2%
  Neu: 14.8%
  PT: 15.5 s
  Plat: 115.8 x10_4/uL
  RBC: 619 x10_4/ul
  Ret: 8%
  WBC: 65.2 x10_2/uL
  KIDNEY_L: 0.9 g
  KIDNEY_R: 0.9 g
  KIDNEY_TOTAL: 1.8 g
  LIVER: 10 g
  A/G: 0.9
  ALP: 1666.2 IU/L
  ALT: 42.8 IU/L
  AST: 71.2 IU/L
  BUN: 16.4 mg/dL
  CRE: 0.2 mg/dL
  Ca: 11.1 mg/dL
  Cl: 106.8 meq/L
  DBIL: 0.01 mg/dL
  GLC: 177.8 mg/dL
  IP: 8.5 mg/dL
  K: 4.3 meq/L
  LDH: 74.6 IU/L
  Na: 142.4 meq/L
  PL: 155 mg/dL
  RALB: 2.6 g/dL
  TBIL: 0.042 mg/dL
  TC: 80.4 mg/dL
  TG: 80.8 mg/dL
  TP: 5.7 g/dL
  gamma-GTP: 1 IU/L
